According to patent US20190053492A1, “SUBSTITUTED PYRIDINE COMPOUNDS AS PESTICIDES” (Bayer CropScience Aktiengesellschaft, priority 2016, published 2019):
Where two headings read alike, the source gives them in different places.

Legend:
Lucilia cuprina = Lucilia cuprina test; format: in vivo; settings: application rate 100 ppm, after 2 days, L1 larvae
Experimental: Lucilia cuprina Test Solvent: dimethyl sulphoxide To produce a suitable active ingredient formulation, 10 mg of active ingredient are mixed with 0.5 ml of dimethyl sulphoxide, and the concentrate is diluted with water to the desired concentration. About 20 L1 larvae of the Australian sheep blowfly (Lucilia cuprina) are transferred into a test vessel containing minced horsemeat and the active ingredient formulation of the desired concentration. After 2 days, the kill in % is determined. 100% means that all the larvae have been killed; 0% means that no larvae have been killed.

Spodoptera frugiperda = Spodoptera frugiperda spray test; format: in vivo; settings: after 7 days, maize leaf discs; for pest or weed control at 100 g/ha / pest or weed control at 500 g/ha: Spodoptera frugiperda, foliar, 168 h, read-out: efficacy (caterpillars killed)
Outline: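 Maize leaf discs were sprayed with compound formulated in acetone/DMF and emulsifier-containing water, dried, then infested with Spodoptera frugiperda caterpillars. Percent kill was scored after 7 days, from 100% (all dead) to 0% (none dead).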

Phaedon cochleariae = Phaedon cochleariae spray test; format: in vivo; settings: after 7 days, Chinese cabbage leaf discs; for pest or weed control at 100 g/ha / pest or weed control at 500 g/ha: Phaedon cochleariae, foliar, 168 h, read-out: efficacy (beetle larvae killed)
Outline: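 Chinese cabbage leaf discs sprayed with compound in acetone/DMF and emulsifier-containing water, then infested with mustard beetle larvae once dry. Efficacy in % scored after 7 days (100% = all larvae killed, 0% = none).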

[1] = log P by HPLC on reversed-phase column (C 18), EEC Directive 79/831 Annex V.A8; format: physicochemical; settings: 55° C.; for LOGP_HCOOH: log P (HCOOH); for LOGP_NEUTRAL: log P, neutral range; for chromatographic logP: reversed-phase HPLC column (C 18)
Experimental: Temperature: 55° C. […] Called log P (HCOOH) in the table. […] Called log P (neutral) in the table.

Musca domestica = Musca domestica test; format: in vivo; settings: after 2 days, adult houseflies
Experimental: Musca domestica Test Solvent: dimethyl sulphoxide To produce a suitable active ingredient formulation, 10 mg of active ingredient are mixed with 0.5 ml of dimethyl sulphoxide, and the concentrate is diluted with water to the desired concentration. Vessels containing a sponge treated with sugar solution and the active ingredient formulation of the desired concentration are populated with 10 adult houseflies (Musca domestica). After 2 days, the kill in % is determined. 100% means that all of the flies have been killed; 0% means that none of the flies have been killed.

Ctenocephalides felis = Ctenocephalides felis oral test; format: in vivo; settings: application rate 100 ppm in citrated cattle blood, after 2 days, adult cat fleas; for pest or weed control at 100 ppm: Ctenocephalides felis, po, 48 h, read-out: efficacy (kill in %)
Outline: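 About 20 unfed adult cat fleas fed through a parafilm membrane on citrated cattle blood dosed with compound from a DMSO formulation. Percent kill was scored after 2 days.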

[2] = acidic range pH 2.7, 0.1% aqueous formic acid and acetonitrile, reversed-phase column (C 18)
[3] = HPLC on reversed-phase column (C 18)
[4] = acidic range at pH 2.7, 0.1% aqueous formic acid and acetonitrile, HPLC on reversed-phase column (C 18)
[5] = pH 2.7, LC-MS acidic range, pH 2.7, 0.1% formic acid/acetonitrile, read-out: log P (acidic) / log P (HCOOH)

| LOGP_HCOOH [1, 2] | LOGP_NEUTRAL [1, 3] | LOGP_HCOOH [1, 4] | chromatographic logP [1, 5] | chromatographic logP ([1]; pH 2.7, log P (HCOOH), acidic range at pH 2.7, 0.1% aqueous formic acid and acetonitrile, HPLC on reversed-phase column (C 18), read-out: LOGP_HCOOH) | chromatographic logP ([1]; pH 7.8, LC-MS neutral range, pH 7.8, ammonium hydrogencarbonate/acetonitrile, read-out: log P (neutral)) | Compound | efficacy (kill in %) (Lucilia cuprina) | efficacy (caterpillars killed) (Spodoptera frugiperda; application rate 100 g/ha) | efficacy (caterpillars killed) (Spodoptera frugiperda; application rate 500 g/ha) | efficacy (beetle larvae killed) (Phaedon cochleariae; application rate 100 g/ha) | efficacy (beetle larvae killed) (Phaedon cochleariae; application rate 500 g/ha) | efficacy (kill in %) (Musca domestica; application rate 100 ppm) | efficacy (kill in %) (Ctenocephalides felis) | efficacy (kill in %) (Musca domestica; application rate 20 ppm) | pest or weed control at 100 g/ha (Spodoptera frugiperda; application rate 100 g/ha) | pest or weed control at 500 g/ha (Spodoptera frugiperda; application rate 500 g/ha) | pest or weed control at 100 g/ha (Phaedon cochleariae; application rate 100 g/ha) | pest or weed control at 500 g/ha (Phaedon cochleariae; application rate 500 g/ha) | pest or weed control at 100 ppm (Ctenocephalides felis) |
| --- | --- | --- | --- | --- | --- | --- | --- | --- | --- | --- | --- | --- | --- | --- | --- | --- | --- | --- | --- |
| 3.90 | 3.79 | – | – | – | – | N#Cc1ccc(CNC(=O)c2cc(-c3ccc(C(F)(F)F)cc3)cc(NC(=O)C3CC3)n2)c(F)c1 [Example I-077] | 100% | 100% | 100% | 83% | 100% | 80% | 100% | – | – | – | – | – | – |
| 4.03 | 3.91 | – | – | – | – | N#Cc1ccc(CNC(=O)c2cc(-c3ccc(OC(F)(F)F)cc3)cc(NC(=O)C3CC3)n2)c(F)c1 [Example I-079] | 100% | 100% | 100% | – | 100% | 90% | 100% | – | – | – | – | – | – |
| – | 3.40 | 3.46 | – | – | – | N#Cc1ccc(CNC(=O)c2cc(-c3cc(F)c(OC(F)F)c(F)c3)cc(NC(=O)C3CC3)n2)cc1 [Example I-155] | 100% | 100% | 100% | – | 83% | 100% | 100% | – | – | – | – | – | – |
| – | 4.30 | 4.37 | – | – | – | O=C(NCc1ccc([N+](=O)[O-])cc1)c1cc(-c2ccc(C(F)(F)C(F)(F)F)cc2)cc(NC(=O)C2CC2)n1 [Example I-196] | 100% | 100% | 100% | 100% | 100% | 80% | 100% | – | – | – | – | – | – |
| – | 3.93 | 4.08 | – | – | – | N#Cc1ccc(C2(NC(=O)c3cc(-c4ccc(OC(F)(F)F)cc4)cc(NC(=O)C4CC4)n3)CC2)cc1 [Example I-159] | 90% | 100% | 100% | – | – | 80% | 100% | – | – | – | – | – | – |
| – | 4.05 | 4.14 | – | – | – | N#Cc1ccc(CNC(=O)c2cc(-c3cc(F)c(OC(F)(F)F)c(F)c3)cc(NC(=O)C3CC3)n2)cc1 [Example I-152] | 90% | 100% | 100% | 100% | 100% | 90% | 100% | – | – | – | – | – | – |
| – | 3.61 | 3.76 | – | – | – | N#Cc1ccc(CNC(=O)c2cc(-c3ccc4c(c3)OC(F)(F)O4)cc(NC(=O)C3CC3)n2)cc1 [Example I-154] | 100% | 83% | 100% | 100% | 100% | 100% | 100% | – | – | – | – | – | – |
| 4.05 | 3.90 | – | – | – | – | N#Cc1cc(F)c(CNC(=O)c2cc(-c3ccc(C(F)(F)F)cc3)cc(NC(=O)C3CC3)n2)cc1F [Example I-074] | 100% | 100% | 100% | 100% | 100% | 100% | 100% | – | – | – | – | – | – |
| 4.01 | 3.94 | – | – | – | – | CC(NC(=O)c1cc(-c2ccc(C(F)(F)F)cc2)cc(NC(=O)C2CC2)n1)c1ccc(C#N)cc1 (centres unmarked) [Example I-040] | 100% | 83% | 100% | 100% | 100% | 90% | 98% | – | – | – | – | – | – |
| – | 4.08 | 4.22 | – | – | – | N#CC1CCC(CNC(=O)c2cc(-c3ccc(C(F)(F)C(F)(F)F)cc3)cc(NC(=O)C3CC3)n2)CC1 (centres unmarked) [Example I-195] | 100% | 100% | 100% | 100% | 100% | 100% | 100% | 100% | – | – | – | – | – |
| – | – | 4.23 | – | – | – | O=C(NC1(C2CC2)CC1)c1cc(-c2ccc(OC(F)(F)F)cc2)cc(NC(=O)C2CC2)n1 [Example I-184] | 100% | – | 100% | 100% | 100% | – | 100% | 100% | – | – | – | – | – |
| – | – | – | 3.73 | 3.68 | – | N#Cc1ccc(CNC(=O)c2cc(-c3ccc(C(F)(F)F)s3)cc(NC(=O)C3CC3)n2)cc1 [Example I-160, N-(4-Cyanobenzyl)-6-[(cyclopropylcarbonyl)amino]-4-[5-(trifluoromethyl)-2-thienyl]pyridine-2-carboxamide] | 100% | – | – | – | – | 80% | – | – | 100% | 100% | 100% | 100% | 100% |
| 4.35 | 4.21 | – | – | – | – | CC(C)C(=O)Nc1cc(-c2ccc(OC(F)(F)F)cc2)cc(C(=O)NCc2cc(F)c(C#N)c(F)c2)n1 [Example I-073] | 100% | 83% | 100% | – | – | 80% | 100% | – | – | – | – | – | – |
| 3.86 | 3.80 | – | – | – | – | Cn1nccc1-c1ccc(CNC(=O)c2cc(-c3ccc(OC(F)(F)F)cc3)cc(NC(=O)C3CC3)n2)cc1 [Example I-107] | 100% | – | 100% | 100% | 100% | 90% | – | – | – | – | – | – | – |
| 4.12 | 4.01 | – | – | – | – | N#Cc1cc(F)c(CNC(=O)c2cc(-c3ccc(OC(F)(F)F)cc3)cc(NC(=O)C3CC3)n2)c(F)c1 [Example I-082] | 100% | 100% | 100% | 100% | 100% | – | 100% | – | – | – | – | – | – |
| – | 3.82 | 3.86 | – | – | – | N#Cc1ccc(CNC(=O)c2cc(-c3ccc(C(F)(F)F)c(F)c3)cc(NC(=O)C3CC3)n2)cc1 [Example I-224] | 100% | 100% | 100% | 100% | 100% | – | 100% | – | – | – | – | – | – |
| – | 4.14 | 4.25 | 4.25 | – | 4.14 | N#Cc1ccc(CNC(=O)c2cc(-c3ccc(C(F)(F)C(F)(F)F)c(F)c3)cc(NC(=O)C3CC3)n2)cc1 [Example I-149, N-(4-Cyanobenzyl)-6-[(cyclopropylcarbonyl)amino]-4-[3-fluoro-4-(pentafluoroethyl)phenyl]pyridine-2-carboxamide] | 100% | – | – | – | – | – | – | – | 100% | 100% | 100% | 100% | 100% |
